Results on 3 compounds are retold here after patent US20130084287A1, “DIAGNOSTIC MARKERS” (GENENTECH, INC., priority 2011, published 2013).

Like-named read-outs stand apart in the source and are kept apart here.

Common to all, as to type: cell-based
In assay [1] the test system is NSCLC cell lines. As to the kind of experiment: quantitative PCR of gene expression in 5-aza-dC-treated vs DMSO-treated NSCLC cell lines. As for the experimental part: (§1) Cells were grown in RPMI 1640 supplemented with 10% fetal bovine serum and 2 mM L-Glutamine Cells were seeded on day 0 at 4000-9000 cells/cm2 and dosed with 1 μM 5-aza-2′-deoxycytidine (5-aza-dC) (SIGMA-ALDRICH Cat No. A3656) or DMSO control (Cat No. D2650) on days 1, 3, and 5. On day 6 cells were washed once in cold PBS and harvested by scraping in Trizol (Invitrogen, Cat No 15596018) and extracted for RNA or flash frozen for later RNA extraction. For induction of EMT, cells were plated at 20000-50000 cells/10 cm2 in complete medium and supplemented with 2 ng/mL human transforming growth factor beta 1 (TGFβ1) (R&D Systems, Cat No 100-B/CF) or PBS control. Media and TGFβ1 were replaced every 3 days, and RNA was extracted at 4-5 weeks following TGFβ1 induction of EMT. Gene expression changes were assessed using Taqman assays for the 20-gene EMT panel (FIG. 1).
To evaluate the role of methylation in regulating expression of the genes associated with select DMRs, quantitative PCR was carried out in a panel of 34 5-aza-2′-deoxycytidine (5-aza-dC) and dimethyl sulfoxide-treated NSCLC cell lines. […] From this group of genes, CLDN7 was selected as a representative marker of EMT and its methylation status was quantified by pyrosequencing in an extended panel of 42 cell lines.
In FIG. 5A, quantitative methylation was determined at 7 CpG sites by PyroMark analysis software using the equation: % methylation=(C peak height×100/C peak height+T peak height). Data are represented as the mean±SD percentage of methylation at 7 CpG sites. In FIG. 5B, relative expression of CLDN7 mRNA was determined using a standard ΔCt method in 42 (n=20 epithelial-like, 19 mesenchymal-like, 3 intermediate) DMSO-treated and 5-aza-dC-treated NSCLC cell lines. Expression values were calculated as a fold change in 5-aza-dC-treated relative to DMSO-treated control cells. Data are normalized to the housekeeping gene GAPDH and represented as the mean of 2 replicates. DMSO, dimethyl sulfoxide; GAPDH, glyceraldehyde-3-phosphate dehydrogenase.

Assay [2] deals with NSCLC cell lines. Put plainly: erlotinib IC50 determination, Celltiter-Glo Luminescent Cell Viability Assay. Particulars: for IC50: read-out: erlotinib sensitivity (IC50 class). As for the experimental part: For erlotinib IC50 determination, cells were plated in quadruplicate at 3×10^2 cells per well in 384-well plates in RPMI containing 0.5% FBS (assay medium) and incubated overnight. 24 hours later, cells were treated with assay medium containing 3 nM TGFα and erlotinib at a dose range of 10 μM-1 pM final concentration. After 72 hrs, cell viability was measured using the Celltiter-Glo Luminescent Cell Viability Assay (Promega). The concentration of erlotinib resulting in 50% inhibition of cell viability was calculated from a 4-parameter curve analysis and was determined from a minimum of two experiments.

In assay [3] the test system is NSCLC cell lines. Put plainly: TGFβ1 induction of EMT, 20-gene EMT expression panel and morphology. Particulars: 2 cell lines, 2 ng/mL TGFβ1. On the procedure: as §1
2 μl of total RNA was reverse-transcribed to cDNA and pre-amplified in a single reaction using Superscript III/Platinum Taq (Invitrogen) and Pre-amplification reaction mix (Invitrogen). 20 Taqman primer/probe sets selected for the EMT expression panel (FIG. 1) were included in the pre-amplification reaction at a final dilution of 0.05× original Taqman assay concentration (Applied Biosystems). […]
Pre-amplified cDNA was diluted 1.94-fold and then amplified using Taqman Universal PCR MasterMix (Applied Biosystems) on the BioMark BMK-M-96.96 platform (Fluidigm) according to the manufacturer's instructions. […] Two custom-designed reference genes that were previously evaluated for their expression stability across multiple cell lines, fresh-frozen tissue samples, and FFPE tissue samples, AL-1377271 and VPS-33B, were included in the expression panel. A mean of the Ct values for the two reference genes was calculated for each sample, and expression levels of EMT target genes were determined using the delta Ct (dCt) method as follows: Mean Ct (Target Gene)−Mean Ct (Reference Genes). […]

`Nc1ncn([C@H]2C[C@H](O)[C@@H](CO)O2)c(=O)n1` [5-aza-dC, 5-aza-2′-deoxycytidine]: in the assay with NSCLC cell lines [1] (majority of the epithelial-like cell lines, 1 μM 5-aza-dC), the “induction of CLDN7 expression” value is listed as “not induced further”. Further, the “induction of GRHL2, ESRP1, and CLDN7 transcripts” value with NSCLC cell lines [1] (mesenchymal-like versus epithelial-like lines, panel of 34 NSCLC cell lines) is given as “significant induction”. Also, the “induction of CLDN7 expression, fold change in 5-aza-dC-treated relative to DMSO-treated control cells” value in the assay with NSCLC cell lines [1] (nearly all mesenchymal-like lines, 1 μM 5-aza-dC, normalized to GAPDH) is reported as greater than 10 fold.

As a reminder, the IC50 is the concentration that gives 50% inhibition. As to `C#Cc1cccc(Nc2ncnc3cc(OCCOC)c(OCCOC)cc23)c1` [erlotinib, [6,7-bis(2-methoxyethoxy)-4-quinazolin-4-yl]-(3-ethynylphenyl) amine], the IC50 is no more than 2000 nM with NSCLC cell lines [2] (6 EGFR-mutant NSCLC cell lines); no more than 2000 nM with NSCLC cell lines [2] (72 h, RERF-LC-MS cell line, 72 hrs, 3 nM TGFα); no more than 2000 nM in the assay with NSCLC cell lines [2] (Homo sapiens, NCI-H838, 72 h, H838 cell line, 72 hrs, 3 nM TGFα); no more than 2000 nM in the assay with NSCLC cell lines [2] (Homo sapiens, NCI-H2030, 72 h, H2030 cell line, 72 hrs, 3 nM TGFα); no more than 2000 nM in the assay on NSCLC cell lines [2] (Homo sapiens, SK-MES-1, 72 h, SK-MES-1 cell line, 72 hrs, 3 nM TGFα); no less than 8000 nM in the assay on NSCLC cell lines [2] (nearly all mesenchymal-like lines). Also, the erlotinib sensitivity entry is recorded as “resistance” with NSCLC cell lines [2] (H1993, MET amplification) and “resistance” in the assay with NSCLC cell lines [2] (epithelial-like line H1975, T790M mutation in EGFR).

For the compound “TGFβ1: human transforming growth factor beta 1 (R&D Systems), used for induction of EMT”, in the assay on NSCLC cell lines [3], the morphologic changes entry is “induced morphologic changes associated with an EMT”. In the assay on NSCLC cell lines [3] (20-gene EMT panel), the “expression of genes associated with a mesenchymal phenotype” value is “upregulated” and the “expression of genes associated with an epithelial phenotype” value was “downregulated”.
